Results: US10196385B2, “Tetrahydropyranyl benzamide derivatives” (Eli Lilly and Company, priority 2015, dated 2019)

What was measured:
GPR142 = GPR142 (Mus musculus (Mouse), UniProt Q7TQN9); experiment: Intraperitoneal Glucose Tolerance Tests (IPGTT); assay type: in vivo; conditions: male C57BL/6 mice; for ED50 / ED80: oral dosing 30 minutes prior to i.p. glucose challenge (2 g/kg), glucose AUC lowering; for considered positive in the assay (reduction in glucose AUC, P<0.05): oral dosing, IPGTT
Sequence of GPR142 (Q7TQN9 whole entry): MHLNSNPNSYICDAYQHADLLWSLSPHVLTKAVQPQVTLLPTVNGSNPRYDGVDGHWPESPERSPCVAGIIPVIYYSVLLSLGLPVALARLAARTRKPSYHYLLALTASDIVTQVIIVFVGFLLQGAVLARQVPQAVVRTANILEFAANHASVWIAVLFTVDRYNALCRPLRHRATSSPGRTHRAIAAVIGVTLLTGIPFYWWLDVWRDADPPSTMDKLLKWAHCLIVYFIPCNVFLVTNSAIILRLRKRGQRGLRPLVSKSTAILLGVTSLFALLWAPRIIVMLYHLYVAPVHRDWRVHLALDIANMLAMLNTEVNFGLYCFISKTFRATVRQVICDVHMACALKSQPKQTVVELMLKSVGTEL
Experimental: Intraperitoneal Glucose Tolerance Tests (IPGTT)
IPGTT assay is used to examine the ability of exemplified compounds to activate GPR142 in vivo resulting in anti-diabetic efficacy, i.e. reduction in plasma glucose levels. Male C57BL/6 mice (8-10 weeks of age) are fed normal rodent chow diet and water ad libitum. On the night before the study, animals are fasted overnight in clean cages. On the morning of the study, animals are dosed orally with vehicle or compound at the indicated doses 30 minutes prior to the glucose challenge (2 g/kg) by intraperitoneal injection. Blood glucose levels are determined from tail bleeds taken immediately prior to compound dosing (−30 min) and 0, 15, 30, and 60 min after glucose challenge using handheld glucometers. Plasma is isolated from tail bleeds taken at 7 min after glucose challenge and used to determine insulin levels by the Rat/Mouse Insulin Elisa kit (Millipore) or MA6000 Mouse/Rat Insulin Kit (MSD). The blood glucose profile from t=0 to t=60 min is used to calculate an area under the curve (AUC) for each treatment. Percent lowering in glucose AUC is calculated for each treatment group with respect to the AUC of vehicle group. A compound with a reduction in glucose AUC (P<0.05) is considered positive in the assay.

human GPR142 = human GPR142 (Homo sapiens (Human), UniProt Q7Z601); experiment: GPR142 Agonist Effect as Measured by IP-1 Assay; assay type: cell-based; conditions: HEK293 cells expressing human GPR142, Mean ± SEM; for Efficacy: IP-1 assay; for EC50: IP-One HTRF, read-out: hGPR142 IP1 EC50
Sequence of human GPR142 (Q7Z601 whole entry): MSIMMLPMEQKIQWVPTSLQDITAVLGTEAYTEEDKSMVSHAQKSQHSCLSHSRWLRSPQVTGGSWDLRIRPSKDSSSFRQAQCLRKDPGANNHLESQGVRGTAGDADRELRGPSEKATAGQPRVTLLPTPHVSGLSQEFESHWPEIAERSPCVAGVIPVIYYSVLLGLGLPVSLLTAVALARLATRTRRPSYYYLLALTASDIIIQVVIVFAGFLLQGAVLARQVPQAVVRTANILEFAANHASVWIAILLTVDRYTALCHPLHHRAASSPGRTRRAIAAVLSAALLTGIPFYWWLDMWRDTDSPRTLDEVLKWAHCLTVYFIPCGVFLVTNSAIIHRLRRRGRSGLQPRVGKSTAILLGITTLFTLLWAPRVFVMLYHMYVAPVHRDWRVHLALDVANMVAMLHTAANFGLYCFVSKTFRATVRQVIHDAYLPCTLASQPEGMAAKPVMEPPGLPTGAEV
Experimental: GPR142 Agonist Effect as Measured by IP-1 Assay
The purpose of this assay is to detect GPR142 agonist effect.
HEK293 cells expressing human GPR142 are maintained in DMEM supplemented with 10% FBS and 800 μg/ml G418 (Geneticin®) at 37° C. and 5% CO2. The cells are plated in 384 well plates at 5000 cells per well and allowed 18 hours for attachment. After addition of compounds at varying concentrations ranging from 30 μM to 1 nM, cells are incubated for 1 hr. IP-1 measurements are performed using an IP-One HTRF® assay kit (Cisbio) according to manufacturer's protocol using assay buffer containing 1×HBSS (+Ca, +Mg), 0.1% BSA, 50 mM LiCl and 20 mM HEPES, pH 7.2. The reaction is stopped by addition of IP1-d2 (IP-1 coupled to an organic HTRF acceptor) followed by cryptate solution (http://www.htrf.com/usa/htrf-chemistry). The plates are incubated at 25° C. for 1 hr. Fluorescence is read in an Envision instrument at 665 nm and 620 nm wavelength. The ratio of 665 nm/620 nm is calculated and converted to IP-1 levels using an IP-1 standard curve. The data is fit to a 4 parameter-fit logistics to determine EC50 values.

SMILES	ED50 (GPR142) [mpk]	ED80 (GPR142) [mpk]	considered positive in the assay (reduction in glucose AUC, P<0.05) (GPR142)	Efficacy (human GPR142)	EC50 (human GPR142) [nM]
Cc1ncn(C)c1-c1nnc([C@@H]2C[C@H](N(C)C(=O)c3cccc(C(F)(F)F)c3)CCO2)[nH]1 (single isomer, unassigned; isomer 1) [Example 1, Cis-(chiral)-N-[(2-[5-(1,4-Dimethyl-1H-imidazol-5-yl)-4H-1,2,4-triazol-3-yl]tetrahydro-2H-pyran-4-yl]-N-methyl-3-(trifluoromethyl)benzamide, Isomer 1]	0.30	1.6	positive	109 ± 3, n = 12%	43.5 ± 7.9
Cc1ncn(C)c1-c1nnc([C@@H]2C[C@H](N(C)C(=O)c3cccc(OC(F)(F)F)c3)CCO2)[nH]1 (single isomer, unassigned; isomer 1) [Example 2, Cis-(chiral)-N-[2-[5-(1,4-Dimethyl-1H-imidazol-5-yl)-4H-1,2,4-triazol-3-yl]tetrahydro-2H-pyran-4-yl]-N-methyl-3-(trifluoromethoxy)benzamide, Isomer 1]	0.24	1.6	positive	110 ± 2, n = 11%	30.1 ± 4.2
Cc1ncn(C)c1-c1nnc([C@@H]2C[C@H](N(C)C(=O)c3cccc(Cl)c3)CCO2)[nH]1 (single isomer, unassigned; isomer 1) [Example 3, Cis-(chiral)-3-Chloro-N-[2-[5-(1,4-dimethyl-1H-imidazol-5-yl)-4H-1,2,4-triazol-3-yl]tetrahydro-2H-pyran-4-yl]-N-methyl-benzamide, Isomer 1]	–	–	–	112 ± 3, n = 7%	27.2 ± 4.8
